{
  "source": "paper PMC8851282",
  "about": "“Senolysis induced by 25-hydroxycholesterol targets CRYAB in multiple cell types” (iScience, 2022)",
  "key": {"[1]": {"tested_on": "human articular chondrocytes (hAC)", "test": "Cell viability assay of NS and Doxo- or IR-induced senescent hACs treated with 25HC", "assay_type": "cell-based", "settings": "11.1 μM after 12 days; Doxo or IR induced senescence", "method": "Figure 7 25HC treatment timeline and its effects on NS and SEN hCMECs, hLSCs, hRPTECs, and hACs All cell types were treated with either DMSO, 250 nM Doxo or 10-Gy IR at the times shown. 25HC treatment was started 24 h after Doxo or IR treatment. Cell viability was measured every 3–5 days for 15 days. Optimal treatment times for maximum senolysis are shown for each cell type: day 15 for hCMECs, day 3 for hLSCs, day 9 for hRPTECs and day 12 for hACs. For qRT-PCR: mean ± SE, n =4, ∗p< 0.05, ∗∗p< 0.01, ∗∗∗p<0.001, ∗∗∗∗p<0.0001 by Dunnett’s multiple comparisons test vs DMSO or NS, For cell viability assays: mean ± SE, n =3, ∗∗p< 0.01, ∗∗∗p<0.001, ∗∗∗∗p<0.0001 vs 0 mM by student’s t test.\nAll experiments were performed in incubators at 37 °C, 3% O2 and 5% CO2. Senescence was induced by treatment with either Doxo (250 nM for 24 h) ([Demaria et al., 2017]) or X-irradiation (10 Gy) ([Limbad et al., 2020]). […]\nCell viability was assessed using a cell counting kit-8 from Dojindo Molecular Technologies, Inc (Cat CK04-20). […] The supernatant was transferred to a new 96-well plate and absorbance read at 450 nm as recommended in the product datasheet. […]\nCells were treated with DMSO or 250 nM Doxo for 24 h. […] Cell viability was measured every 3–5 days until 15 days. […] Cell viability was measured every 3–5 days until 15 days. […]"}, "15-d-PGJ2": {"tested_on": "15-d-PGJ2", "test": "15-d-PGJ2 ELISA in urine of aged mice given 25HC", "assay_type": "in vivo, mouse", "settings": "24–26-month-old mice, both genders; urine 12 h after the first treatment with 25HC 50 mg/kg i.p., relative to controls", "method": "Figure 9 25HC is an in vivo senolytic in tissues of aged mice (A) Timeline of 25HC treatment in aged mice. Young (5 months old) and old (24–26 months old) mice were treated with 25HC or vehicle for 5 consecutive days. (B) Mass of gastrocnemius muscles in male and female mice. Muscle weight was normalized to body weight. (C) Cdkn1a and Cryab mRNA levels in gastrocnemius (Gastroc) and soleus (Sol) muscles. RNA was collected at 7–9 d after the first treatment with 25HC or vehicle. mRNA levels of the indicated genes were quantified by qRT-PCR, and normalized to those of actin mRNA. The average value of young-vehicle was set at 1. (D) 15-d-PGJ2 analysis in urine. […]\nTwo groups of male and female C57BL/6J mice were used. […] Senescence markers and CRYAB were analyzed using mRNA from gastrocnemius (Gastroc), soleus (So), tibialis anterior (TA), visceral fat (VF), kidney (Ki), liver (Li), lung (Lu), heart (He), and skin (Sk) samples using qRT-PCR (Figures S14, S15, S16, S17, and S18).\nUrine was collected at 12 or 24 h after the first treatment with 25HC or vehicle and diluted 10-fold with assay buffer. The amount of 15-d-PGJ2 was measured using a 15-deoxy-Δ^12,14-PGJ2 ELISA kit according to manufactures’ protocol (Enzo Life Sciences)."}, "CRYAB": {"tested_on": "CRYAB", "design": "method as in Makley et al., 2015", "settings": "ref Makley et al., 2015; cited from earlier work"}, "[2]": {"tested_on": "human lung fibroblasts (IMR-90)", "test": "Cell viability assay of NS and SEN IMR-90 cells treated with CRYAB and HMOX1 inhibitors", "assay_type": "cell-based", "settings": "250 nM Doxo-induced senescence; viability after 72 h; 25HC at 10 or 50 μM", "method": "The average value of DMSO was set at 1. (B and D) Effects of CRYAB and HMOX1 inhibitors on DMSO-treated NS or Doxo-treated SEN cells; (B) mDFs, (D) IMR-90s. Cells were treated with the inhibitors at the indicated concentrations. Cell viability was measured after 72 h. (C) IMR-90 qRT-PCR. For qPCR: mean +/- SE, n =4, ∗p< 0.05, ∗∗p< 0.01, ∗∗∗p<0.001, ∗∗∗∗p<0.0001 by Dunnett’s multiple comparisons test vs DMSO. For cell viability assays: mean +/- SE, n =3, ∗∗p< 0.01, ∗∗∗p<0.001, ∗∗∗∗p<0.0001 vs 0 mM by student’s t test.\nAll experiments were performed in incubators at 37 °C, 3% O2 and 5% CO2. Senescence was induced by treatment with either Doxo (250 nM for 24 h) ([Demaria et al., 2017]) or X-irradiation (10 Gy) ([Limbad et al., 2020]). For cell culture studies using 25HC, it was used at the indicated concentrations in the media.\nIMR-90 cells were cultured in DMEM with 10% FBS. […]\nCell viability was assessed using a cell counting kit-8 from Dojindo Molecular Technologies, Inc (Cat CK04-20). […] The supernatant was transferred to a new 96-well plate and absorbance read at 450 nm as recommended in the product datasheet."}},
  "data": [
    {"compound": "C[C@H](CCCC(C)(C)O)[C@H]1CC[C@H]2[C@@H]3CC=C4C[C@@H](O)CC[C@]4(C)[C@H]3CC[C@]12C", "note": "[25HC, 25-hydroxycholesterol]", "values": [
      {"measurement": "senolysis in hACs", "setting": "[1]", "result": "induced significant senolysis"},
      {"measurement": "15-d-PGJ2 level in urine", "setting": "15-d-PGJ2", "result": "greater"},
      {"measurement": "CRYAB aggregation", "setting": "CRYAB", "result": "blocks CRYAB aggregation"},
      {"measurement": "senolysis in IMR-90 cells", "setting": "[2]", "result": "induced significant senolysis"}
    ]}
  ]
}
